The text below walks through data of patent publication US12064471B2, “Compositions comprising sulforaphane or a sulforaphane precursor and a mushroom extract or powder” (NUTRAMAX LABORATORIES, INC., priority 2012, dated 2024).

In test [1] the test system is myrosinase. Nature of the test: Conversion of glucoraphanin to sulforaphane in Simulated Intestinal Fluid (Example 5). The class given is biochemical, broccoli. The following applies: 0.25 to 1.00 mmol/Liter ascorbic acid, 38° C., 2 hours. As for the experimental part: Simulated Intestinal Fluid (SIF) powder, a commercially supplied concentrate closely approximating the human intestinal content in terms of composition, pH and ionic strength, was used. The experiment utilized a USP Dissolution Apparatus 2 (paddles), where into six dissolution vessels 500 mL of Simulated Intestinal Fluid was dispensed, along with 150 mg of freeze-dried broccoli sprout powder as a source of myrosinase. […] Aliquots were withdrawn every 15 minutes and assayed for sulforaphane.

Test [2] relates to myrosinase. Put plainly: Conversion of glucoraphanin to sulforaphane by myrosinase, HPLC (Example 4). The class given is biochemical. The following applies: Part 2, 250 mg broccoli seed extract. The method, then: A two-part experiment was conducted to further elucidate the role of ascorbic acid in modulating myrosinase activity. […] A control sample contained no ascorbic acid, and the enzymatic conversion proceeded unassisted by a co-factor. PART 1. […] PART 2. While keeping the amount of broccoli seed extract fixed at 250 mg, the concentration of ascorbic acid was varied from 0.4 mmol/Liter to 3.8 mmol/Liter.

For `O=C1O[C@H]([C@@H](O)CO)C(O)=C1O` [Ascorbic Acid, Ascorbic acid], in test [1], the “Sulforaphane yield versus ascorbic acid concentration” value is “direct correlation between larger yield of sulforaphane and higher concentrations of ascorbic acid”. Moreover, the “Ascorbic acid concentration up to which myrosinase-promoted conversion increases apparently linearly, followed by leveling off” value in test [2] is “about 2 mmol/L”.
